# Data taken from ChEMBL document CHEMBL5518235, “Identification of Novel Series of Potent and Selective Relaxin Family Peptide Receptor 1 (RXFP1) Agonists” (J Med Chem, 2024).
# Columns and labels:
# [1] = biological target: T1, Leucine-rich repeat-containing G-protein coupled receptor 4 (Homo sapiens, UniProt Q9BXB1); test: Agonist activity at LGR4 (unknown origin) by arrestin technology based assay
# T1 sequence (Q9BXB1 whole entry): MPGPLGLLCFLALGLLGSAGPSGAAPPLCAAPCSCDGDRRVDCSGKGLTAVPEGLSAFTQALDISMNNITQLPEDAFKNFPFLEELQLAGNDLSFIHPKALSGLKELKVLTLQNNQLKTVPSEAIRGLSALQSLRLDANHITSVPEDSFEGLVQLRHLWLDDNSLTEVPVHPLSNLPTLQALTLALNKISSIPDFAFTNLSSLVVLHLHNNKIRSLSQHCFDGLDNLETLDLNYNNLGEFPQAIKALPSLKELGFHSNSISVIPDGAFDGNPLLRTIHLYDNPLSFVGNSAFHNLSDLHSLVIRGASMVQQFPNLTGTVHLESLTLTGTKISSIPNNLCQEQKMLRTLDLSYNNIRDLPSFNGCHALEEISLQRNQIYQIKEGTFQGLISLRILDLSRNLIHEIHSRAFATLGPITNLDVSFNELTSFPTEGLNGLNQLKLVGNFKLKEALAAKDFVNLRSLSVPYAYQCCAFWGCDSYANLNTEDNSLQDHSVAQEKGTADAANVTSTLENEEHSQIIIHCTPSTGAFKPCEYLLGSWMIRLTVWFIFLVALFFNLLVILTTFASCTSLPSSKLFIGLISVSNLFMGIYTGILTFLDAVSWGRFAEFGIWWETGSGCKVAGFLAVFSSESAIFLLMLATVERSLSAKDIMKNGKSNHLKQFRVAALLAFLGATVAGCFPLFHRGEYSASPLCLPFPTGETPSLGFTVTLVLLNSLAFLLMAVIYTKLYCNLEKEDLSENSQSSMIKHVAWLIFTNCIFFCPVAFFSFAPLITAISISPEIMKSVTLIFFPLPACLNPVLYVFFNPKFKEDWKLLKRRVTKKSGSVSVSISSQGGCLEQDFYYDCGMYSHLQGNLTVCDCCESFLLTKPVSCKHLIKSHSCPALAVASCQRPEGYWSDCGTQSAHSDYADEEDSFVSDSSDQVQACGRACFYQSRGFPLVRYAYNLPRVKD
# [2] = Cytotoxicity against human THP-1 cells assessed as reduction of cell viability incubated for 48 hrs by resazurin reduction assay; assay type: toxicity, cell-based
# IKs channel = test: Inhibition of human IKS channel by automated electrophysiology recording; assay type: toxicity
# Relaxin receptor 1 = biological target: T2, Relaxin receptor 1 (Homo sapiens, UniProt Q9HBX9); test: Agonist activity at human RXFP1 expressed in T-Rex-CHO-K1 cells assessed as stimulation of cAMP production incubated for 45 mins by HTRF assay; assay type: functional, cell-based
# T2 sequence (Q9HBX9 whole entry): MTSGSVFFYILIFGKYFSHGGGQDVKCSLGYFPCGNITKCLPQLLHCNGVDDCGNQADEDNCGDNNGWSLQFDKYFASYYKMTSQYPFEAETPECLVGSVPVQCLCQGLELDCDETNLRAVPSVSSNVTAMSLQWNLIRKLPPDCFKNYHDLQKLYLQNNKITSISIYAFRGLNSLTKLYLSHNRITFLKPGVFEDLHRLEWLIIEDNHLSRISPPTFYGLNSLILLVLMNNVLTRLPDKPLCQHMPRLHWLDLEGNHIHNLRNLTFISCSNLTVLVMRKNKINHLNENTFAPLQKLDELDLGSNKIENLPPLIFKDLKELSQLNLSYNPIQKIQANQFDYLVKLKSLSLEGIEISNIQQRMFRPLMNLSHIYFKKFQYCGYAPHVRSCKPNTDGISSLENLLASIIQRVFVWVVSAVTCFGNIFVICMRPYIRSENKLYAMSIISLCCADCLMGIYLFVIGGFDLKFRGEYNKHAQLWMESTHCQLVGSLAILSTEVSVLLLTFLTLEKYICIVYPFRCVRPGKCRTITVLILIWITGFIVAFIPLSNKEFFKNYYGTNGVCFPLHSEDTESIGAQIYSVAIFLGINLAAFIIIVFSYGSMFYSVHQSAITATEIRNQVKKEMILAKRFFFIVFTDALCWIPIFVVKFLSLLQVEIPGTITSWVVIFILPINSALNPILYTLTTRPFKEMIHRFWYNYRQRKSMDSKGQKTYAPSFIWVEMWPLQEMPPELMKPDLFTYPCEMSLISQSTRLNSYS
# [3] = Metabolic stability in cryopreserved human hepatocytes assessed as intrinsic clearance measured per 10^6 cells at 1 uM after 120 mins by LC-MS/MS analysis; assay type: ADME, cell-based, Hepatocyte; conditions: hepatocytes, 2 h, 1 µM
# [4] = biological target: T3, A-type voltage-gated potassium channel KCND3 (Homo sapiens, UniProt Q9UK17); test: Inhibition of human Kv4.3 by automated electrophysiology recording; assay type: toxicity
# T3 sequence (Q9UK17 whole entry): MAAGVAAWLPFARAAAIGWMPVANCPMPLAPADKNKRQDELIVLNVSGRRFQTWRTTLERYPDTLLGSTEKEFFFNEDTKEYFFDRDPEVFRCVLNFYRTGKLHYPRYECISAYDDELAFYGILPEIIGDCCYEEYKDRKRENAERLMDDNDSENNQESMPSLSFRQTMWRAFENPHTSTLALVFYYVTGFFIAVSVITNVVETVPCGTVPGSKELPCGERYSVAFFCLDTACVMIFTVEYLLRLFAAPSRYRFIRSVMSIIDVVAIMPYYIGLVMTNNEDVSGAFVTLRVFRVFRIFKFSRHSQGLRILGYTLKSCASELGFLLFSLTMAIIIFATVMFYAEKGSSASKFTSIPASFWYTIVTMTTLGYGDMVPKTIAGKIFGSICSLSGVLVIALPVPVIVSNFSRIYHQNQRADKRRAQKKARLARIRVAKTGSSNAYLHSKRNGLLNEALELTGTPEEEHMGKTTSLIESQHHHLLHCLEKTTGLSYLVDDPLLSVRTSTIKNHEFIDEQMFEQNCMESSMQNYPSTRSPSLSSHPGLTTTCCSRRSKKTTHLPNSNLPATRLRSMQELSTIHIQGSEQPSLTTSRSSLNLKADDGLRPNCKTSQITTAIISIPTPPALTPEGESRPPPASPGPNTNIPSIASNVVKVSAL
# [5] = Solubility of compound in phosphate buffer at pH 6.5; assay type: physicochemical
# [6] = Oral bioavailability in Han Wistar rat at 1.46 micromol/kg by LC-MS/MS analysis; assay type: ADME, organism-based; conditions: in vivo, 1.46 µmol/kg
# [7] = Metabolic stability in cryopreserved human hepatocytes assessed as unbound intrinsic clearance measured per 10^6 cells at 1 uM measured after 120 mins by LC-MS/MS analysis; assay type: ADME, cell-based, Hepatocyte; conditions: 2 h
# [8] = Cytotoxicity against human HepG2 cells cultured as C3a spheroids assessed as reduction in cell viability; assay type: toxicity, cell-based
# [9] = Half-life in Han Wistar rat at 0.73 micromol/kg, iv by LC-MS/MS analysis; assay type: ADME, organism-based; conditions: in vivo, dose 0.73 µmol/kg
# [10] = Cytotoxicity against human HepG2 cells cultured under glucose condition assessed as reduction in cell viability; assay type: toxicity, cell-based
# [11] = Clearance in Han Wistar rat at 0.73 micromol/kg, iv by LC-MS/MS analysis; assay type: ADME, organism-based; conditions: in vivo, dose 0.73 µmol/kg
# [12] = Protein binding in rat plasma assessed as free fraction at 5 uM incubated for 18 hrs by equilibrium dialysis based LC-MS/MS analysis; assay type: ADME, cell-free
compound,measurement,setting,value
COc1cc(F)c(O[C@H]2CC[C@@](C)(C(=O)O)CC2)cc1C(=O)N[C@@H]1[C@H]2CC[C@H](C2)[C@@H]1C(=O)Nc1ccc(F)c(S(F)(F)(F)(F)F)c1,EC50,[1],16 µM
same,IC50 at 48 h,[2],15 µM
same,IC50,IKs channel,> 33 µM
same,EC50,Relaxin receptor 1,0.398 nM
same,CLH,[3],21 µL/min/1e6 cells
same,IC50,[4],> 33 µM
same,solubility,[5],0.13 µM
same,bioavailability,[6],11%
same,CL free,[7],2.1 µL/min
same,IC50,[8],17 µM
same,half-life,[9],174 min
same,IC50,[10],68 µM
same,clearance,[11],38 mL/min/kg
same,"fraction unbound at 18 h, 5 µM",[12],0.0015
